Data published in patent US10166216B2 (Rigel Pharmaceuticals, Inc., priority 2006, dated 2019).

Target: Axl (Homo sapiens (Human), UniProt P30530)
Test: Phospho-Akt in-cell Western assay (Axl-antibody cross-linking stimulation)
Format: cell-based
Conditions: inhibition of Axl activity, Hela cells, phospho-Akt readout; Table 1, formula (Ia1)
Procedure: The working solution: dilute the stock 1:20 with PBS immediately before use. • 10% SDS: working solution: 5% SDS (sodium dodecylsulfate), diluted in PBS Methods: Day 1:
A 96 well TC (tissue culture treated) plate was coated with 10 μg/mL poly-L-Lysine at 37° C. for 30 min, washed twice with PBS, and air-dried for 5 minutes before cells were added. Hela cells were seeded at 10,000 cells/well and the cells were starved in 100 μL starvation medium containing Axl/Fc for 24 hrs.
The cells were pre-treated with test compounds by adding 100 μL of 2× test compound to the starvation medium on the cells. The cells were incubated at 37° C. for 1 hr before stimulation.
The resulting mix was warmed to 37° C. 50 μL of 5× Axl 1st/2nd of antibody cluster was added to the cells and the cells were incubated at 37° C. for 5 min.
After 5 minutes stimulation, the plate was flicked to remove medium and the plate was tapped onto paper towels. Formaldehyde (4.0% in PBS, 100 μL) was added to fix the cells and the cells were incubated at ambient temperature for 20 min without shaking.
The cells were washed with a plate washer buffer to remove the formaldehyde solution. The plate was flicked to removed excess wash buffer and tapped onto paper towels. Quenching buffer (100 μL) was added to each well and the cells were incubated at ambient temperature for 20 minutes without shaking.
The cells were washed with a plate washer buffer to remove the quenching buffer. Blocking buffer (100 μL) was added and the cells were incubated at ambient temperature for at least an hour with gentle shaking.
The cells were washed with a plate washer buffer and diluted primary antibody (50 μL) was added to each well (blocking buffer was added to the negative control wells instead). The plates were incubated overnight at 4° C. with gentle shaking.
The wash buffer was removed, diluted secondary antibody (100 μL) was added, and the cells were incubated at ambient temperature for 1 hour with gentle shaking. During the incubation, the chemiluminescent reagent was brought to ambient temperature.
The secondary antibody was removed by washing the cells 1× with wash buffer, 1× with PBS by plate washer. The PBS was removed from the plate and the chemiluminescent reagent (80 μL: 40 μL A and 40 μL B) was added to each well at ambient temperature.
The resulting chemiluminescence was read with a Luminomitor within 10 minutes to minimize changes in signal intensity. […] The plate was tapped onto paper towels to remove excess liquid from wells and air-dried at ambient temperature for 5 minutes.
Crystal Violet working solution (60 μL) was added to each well and the cells were incubated at ambient temperature for 30 min. The crystal violet solution was removed, and the wells were rinsed with PBS, then washed 3× with PBS (200 μL) for 5 minutes each.
5% SDS solution (70 μL) was added to each well and the cells were incubated on a shaker for 30 min at ambient temperature.
This relative cell number was then used to normalize each luminescence reading. […]

Chain of Axl (P30530 26-894): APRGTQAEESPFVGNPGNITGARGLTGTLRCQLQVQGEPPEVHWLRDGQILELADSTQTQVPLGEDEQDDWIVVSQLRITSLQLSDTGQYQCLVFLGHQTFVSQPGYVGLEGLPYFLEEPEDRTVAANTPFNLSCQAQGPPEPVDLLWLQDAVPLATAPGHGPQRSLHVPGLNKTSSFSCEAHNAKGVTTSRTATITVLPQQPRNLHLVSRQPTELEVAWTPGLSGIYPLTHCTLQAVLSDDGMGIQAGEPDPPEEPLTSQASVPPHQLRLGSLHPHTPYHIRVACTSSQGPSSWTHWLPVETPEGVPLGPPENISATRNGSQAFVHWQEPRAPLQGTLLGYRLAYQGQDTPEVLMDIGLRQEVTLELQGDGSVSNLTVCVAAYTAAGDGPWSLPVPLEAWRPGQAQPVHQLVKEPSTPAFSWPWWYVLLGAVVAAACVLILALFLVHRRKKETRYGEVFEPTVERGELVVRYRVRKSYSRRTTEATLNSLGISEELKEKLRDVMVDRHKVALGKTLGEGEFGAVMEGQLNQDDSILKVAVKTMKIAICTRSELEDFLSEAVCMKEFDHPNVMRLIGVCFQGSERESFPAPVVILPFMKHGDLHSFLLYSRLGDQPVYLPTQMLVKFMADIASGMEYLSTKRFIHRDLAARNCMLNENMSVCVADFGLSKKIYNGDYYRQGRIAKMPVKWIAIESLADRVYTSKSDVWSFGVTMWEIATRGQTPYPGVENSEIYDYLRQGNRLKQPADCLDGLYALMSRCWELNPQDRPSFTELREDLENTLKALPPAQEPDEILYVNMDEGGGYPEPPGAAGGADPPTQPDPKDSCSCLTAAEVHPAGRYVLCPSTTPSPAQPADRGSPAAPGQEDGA

| Compound | IC50 |
| --- | --- |
| Nc1nc(Nc2ccc(OCCN3CCCC3)cc2)nn1-c1nc(O)c2c(n1)CCCC2 [Compound 76, 2-(5-amino-3-(4-(2-(pyrrolidin-1-yl)ethoxy)phenylamino)-1H-1,2,4-triazol-1-yl)-5,6,7,8-tetrahydroquinazolin-4-ol] | > 20000 nM |
| COc1cc2ccnc(-n3nc(Nc4ccc(OCCN5CCCC5)cc4)nc3N)c2cc1OC [Compound 77, 1-(6,7-dimethoxyisoquinolin-1-yl)-N^3-(4-(2-(pyrrolidin-1-yl)ethoxy)phenyl)-1H-1,2,4-triazole-3,5-diamine] | < 1000 nM |
| Nc1nc(Nc2ccc(OCCN3CCCC3)cc2)nn1-c1nccc2[nH]c(=O)ccc12 [Compound 78, 5-(5-amino-3-(4-(2-(pyrrolidin-1-yl)ethoxy)phenylamino)-1H-1,2,4-triazol-1-yl)-1,6-naphthyridin-2(1H)-one] | < 1000 nM |
| COc1cc2c(-n3nc(Nc4ccc(OCCN5CCCC5)cc4)nc3N)ncnc2cc1OCc1ccccc1 [Compound 104, 1-(7-(benzyloxy)-6-methoxyquinazolin-4-yl)-N^3-(4-(2-(pyrrolidin-1-yl)ethoxy)phenyl)-1H-1,2,4-triazole-3,5-diamine] | > 20000 nM |

Same assay, conditions: inhibition of Axl activity, Hela cells, phospho-Akt readout; Table 4, formula (Ib2)

| Compound | IC50 |
| --- | --- |
| COc1cc2ncnc(-n3nc(N)nc3Nc3ccc(N4CCN(C5CCCCC5)CC4)cc3)c2cc1OC [Compound 83, N^5-(4-(4-cyclohexylpiperazin-1-yl)phenyl)-1-(6,7-dimethoxyquinazolin-4-yl)-1H-1,2,4-triazole-3,5-diamine] | < 1000 nM |
| CN1CCN(c2ccc(Nc3nc(N)nn3-c3ncnc4ccc(Cl)cc34)cc2)CC1 [Compound 86, 1-(6-chloroquinazolin-4-yl)-N^5-(4-(4-methylpiperazin-1-yl)phenyl)-1H-1,2,4-triazole-3,5-diamine] | < 1000 nM |
| Nc1nc(Nc2ccc(N3CCN(C4CC5CCC4C5)CC3)cc2)n(-c2nc3ccccc3s2)n1 (stereo not shown) [Compound 95, 1-(benzo[d]thiazol-2-yl)-N^5-(4-(4-(bicyclo[2.2.1]heptan-2-yl)piperazin-1-yl)phenyl)-1H-1,2,4-triazole-3,5-diamine] | > 20000 nM |
| COc1cc2ncnc(-n3nc(N)nc3Nc3ccc(N4CCN(C5CC6CCC5C6)CC4)cc3)c2cc1OC (stereo not shown) [Compound 100, N^5-(4-(4-(bicyclo[2.2.1]heptan-2-yl)piperazin-1-yl)phenyl)-1-(6,7-dimethoxyquinazolin-4-yl)-1H-1,2,4-triazole-3,5-diamine] | < 1000 nM |

Same assay, conditions: inhibition of Axl activity, phospho-Akt in-cell Western assay

| Compound | IC50 |
| --- | --- |
| Nc1nc(Nc2ccc(N3CCN(C4CCCCC4)CC3)cc2)nn1-c1nccc2ccccc12 [Compound 81, N^3-(4-(4-cyclohexylpiperazin-1-yl)phenyl)-1-(isoquinolin-1-yl)-1H-1,2,4-triazole-3,5-diamine] | < 1000 nM |
| COc1cc2c(-n3nc(Nc4ccc(N5CCN(C6CCCCC6)CC5)cc4)nc3N)ncnc2cc1O [Compound 82, 4-(5-amino-3-(4-(4-cyclohexylpiperazin-1-yl)phenylamino)-1H-1,2,4-triazol-1-yl)-6-methoxyquinazolin-7-ol] | < 1000 nM |
| CN1CCN(c2ccc(Nc3nc(N)n(-c4nccc5ccccc45)n3)cc2)CC1 [Compound 84, 1-(isoquinolin-1-yl)-N^3-(4-(4-methylpiperazin-1-yl)phenyl)-1H-1,2,4-triazole-3,5-diamine] | < 1000 nM |
| CN1CCN(c2ccc(Nc3nc(N)n(-c4ncnc5ccc(Cl)cc45)n3)cc2)CC1 [Compound 85, 1-(6-chloroquinazolin-4-yl)-N^3-(4-(4-methylpiperazin-1-yl)phenyl)-1H-1,2,4-triazole-3,5-diamine] | < 1000 nM |
| Nc1nc(Nc2ccc(N3CCN(C4CCCCC4)CC3)c(F)c2)nn1-c1nccc2ccccc12 [Compound 87, N^3-(4-(4-cyclohexylpiperazin-1-yl)-3-fluroophenyl)-1-(isoquinolin-1-yl)-1H-1,2,4-triazole-3,5-diamine] | < 1000 nM |
| CC(=O)N1CCN(c2ccc(Nc3nc(N)n(-c4nccc5ccccc45)n3)cc2)CC1 [Compound 88, 1-(4-(4-(5-amino-1-(isoquinolin-1-yl)-1H-1,2,4-triazol-3-ylamino)phenyl)piperazin-1-yl)ethanone] | 1000 to 10000 nM |
| CN1CCN(c2ccc(Nc3nc(N)n(-c4nccc5ccccc45)n3)cc2F)CC1 [Compound 90, N^3-(3-fluoro-4-(4-methylpiperazin-1-yl)phenyl)-1-(isoquinolin-1-yl)-1H-1,2,4-triazole-3,5-diamine] | < 1000 nM |
| Nc1nc(Nc2ccc(N3CCN(C4CCCCC4)CC3)c(Cl)c2)nn1-c1nccc2ccccc12 [Compound 91, N^3-(3-chloro-4-(4-cyclohexylpiperazin-1-yl)phenyl)-1-(isoquinolin-1-yl)-1H-1,2,4-triazole-3,5-diamine] | < 1000 nM |
| CN1CCN(c2ccc(Nc3nc(N)n(-c4ncc5c(n4)-c4ccccc4CC5)n3)cc2)CC1 [Compound 92, 1-(5,6-dihydrobenzo[h]quinazolin-2-yl)-N^3-(4-(4-methylpiperazin-1-yl)phenyl)-1H-1,2,4-triazole-3,5-diamine] | < 1000 nM |
| Nc1nc(Nc2ccc(N3CCN(C4CCCCC4)CC3)cc2)nn1-c1ncc2c(n1)-c1ccccc1CC2 [Compound 93, N^3-(4-(4-cyclohexylpiperazin-1-yl)phenyl)-1-(5,6-dihydrobenzo[h]quinazolin-2-yl)-1H-1,2,4-triazole-3,5-diamine] | < 1000 nM |
| Nc1nc(Nc2ccc(N3CCN(C4CC5CCC4C5)CC3)cc2)nn1-c1ccccn1 (stereo not shown) [Compound 94, N^3-(4-(4-(bicyclo[2.2.1]heptan-2-yl)piperazin-1-yl)phenyl)-1-(pyridin-2-yl)-1H-1,2,4-triazole-3,5-diamine] | 1000 to 10000 nM |
| Nc1nc(Nc2ccc(N3CCN(C4CC5CCC4C5)CC3)cc2)nn1-c1nc2ccccc2s1 (stereo not shown) [Compound 96, 1-(benzo[d]thiazol-2-yl)-N^3-(4-(4-(bicyclo[2.2.1]heptan-2-yl)piperazin-1-yl)phenyl)-1H-1,2,4-triazole-3,5-diamine] | 1000 to 10000 nM |
| Nc1nc(Nc2ccc(N3CCN(C4CC5CCC4C5)CC3)cc2)nn1-c1cnc2ccccc2n1 (stereo not shown) [Compound 97, N^3-(4-(4-(bicyclo[2.2.1]heptan-2-yl)piperazin-1-yl)phenyl)-1-(quinoxalin-2-yl)-1H-1,2,4-triazole-3,5-diamine] | 1000 to 10000 nM |
| COc1cc2ncnc(-n3nc(Nc4ccc(N5CCN(C6CC7CCC6C7)CC5)cc4)nc3N)c2cc1OC (stereo not shown) [Compound 98, N^3-(4-(4-(bicyclo[2.2.1]heptan-2-yl)piperazin-1-yl)phenyl)-1-(6,7-dimethoxyquinazolin-4-yl)-1H-1,2,4-triazole-3,5-diamine] | < 1000 nM |
| COc1cc2nc(Cl)nc(-n3nc(Nc4ccc(N5CCN(C6CC7CCC6C7)CC5)cc4)nc3N)c2cc1OC (stereo not shown) [Compound 101, N^3-(4-(4-(bicyclo[2.2.1]heptan-2-yl)piperazin-1-yl)phenyl)-1-(2-chloro-6,7-dimethoxyquinazolin-4-yl)-1H-1,2,4-triazole-3,5-diamine] | 1000 to 10000 nM |
| COc1cc2c(-n3nc(Nc4ccc(N5CCN(C6CC7CCC6C7)CC5)cc4)nc3N)nc(Cl)nc2cc1O (stereo not shown) [Compound 102, 4-(5-amino-3-(4-(4-(bicyclo[2.2.1]heptan-2-yl)piperazin-1-yl)phenylamino)-1H-1,2,4-triazol-1-yl)-2-chloro-6-methoxyquinazolin-7-ol] | < 1000 nM |
| COc1cc2ncnc(-n3nc(Nc4ccc(N5CCN(C)CC5)c(F)c4)nc3N)c2cc1OC [Compound 105, 1-(6,7-dimethoxyquinazolin-4-yl)-N^3-(3-fluoro-4-(4-methylpiperazin-1-yl)phenyl)-1H-1,2,4-triazole-3,5-diamine] | < 1000 nM |
| COc1cc2c(-n3nc(Nc4ccc(N5CCN(C6CC7CCC6C7)CC5)c(F)c4)nc3N)ncnc2cc1O (stereo not shown) [Compound 106, 4-(5-amino-3-(4-(4-(bicyclo[2.2.1]heptan-2-yl)piperazin-1-yl)-3-fluorophenylamino)-1H-1,2,4-triazol-1-yl)-6-methoxyquinazolin-7-ol] | < 1000 nM |
| COc1cc2ncnc(-n3nc(Nc4ccc(N5CCN(C(C)=O)CC5)cc4)nc3N)c2cc1OC [Compound 107, 1-(4-(4-(5-amino-1-(6,7-dimethoxyquinazolin-4-yl)-1H-1,2,4-triazol-3-ylamino)phenyl)piperazin-1-yl)ethanone] | < 1000 nM |
| CN1CCN(c2ccc(Nc3nc(N)n(-c4cc5c(nn4)-c4ccccc4CC5)n3)cc2)CC1 [Compound 108, 1-(5,6-dihydrobenzo[h]cinnolin-3-yl)-N^3-(4-(4-methylpiperazin-1-yl)phenyl)-1H-1,2,4-triazole-3,5-diamine] | < 1000 nM |
